The results in this text go back to US12110286B2, “Benzimidazolone derived inhibitors of BCL6” (Cancer Research Technology Limited, priority 2017, dated 2024).

Molecules are shown by their SMILES.

The target in the first experiment is Trx-6×His-BCL6 (human BCL6 BTB domain covering amino-acid sequence 5-129) (Homo sapiens (Human), UniProt P41182). Put plainly: HTRF in vitro assay (BCL6 / BCOR-AF633 peptide). Type of experiment: binding. Conditions: further generated data; 1 nM Trx-6×His-BCL6, 300 nM BCOR-AF633 peptide, 0.5 nM anti-6×His-Terbium cryptate. On the procedure:
The % inhibition at each concentration was calculated by normalising FRET ratio to the appropriate high (DMSO with all reagents) and low (DMSO without BCL6) controls.
For orientation: In TR-FRET formats the signal depends on donor and acceptor labels being close together.
Consider `Cn1c(=O)n(CCC(C)(C)O)c2cc(Nc3cc(N4CCC[C@H]4CO)nc4c(C#N)cnn34)ccc21` [Example 31b, (S)-7-((3-(3-hydroxy-3-methylbutyl)-1-methyl-2-oxo-2,3-dihydro-1H-benzo[d]imidazol-5-yl)amino)-5-(2-(hydroxymethyl)pyrrolidin-1-yl)pyrazolo[1,5-a]pyrimidine-3-carbonitrile], for which the “HTRF pIC50” value was determined as 5.73.
`Cn1c(=O)n(CCC(C)(C)O)c2cc(Nc3ncnc(Cl)c3Cl)ccc21` [Example 22l]: the “HTRF pIC50” value worked out at 5.64.
On the same count and under the same terms, for `COC(=O)[C@@H](N)CCn1c(=O)n(C)c2ccc(Nc3ccnc(Cl)c3C#N)cc21` [Example 6, Methyl (2S)-2-amino-4-[6-[(2-chloro-3-cyano-4-pyridyl)amino]-3-methyl-2-oxo-benzimidazol-1-yl]butanoate] the value was 6.00; for `CCC1(Cn2c(=O)n(C)c3ccc(Nc4nc(-n5ccc(C(F)(F)F)n5)ncc4Cl)cc32)CNC(=O)O1` (centres unmarked) [Example 20o], 6.22.
Consider `CCC(C)(O)CCn1c(=O)n(C)c2ccc(Nc3nc(-n4nc(C)cc4C)ncc3Cl)cc21` (centres unmarked) [Example 15f], for which the “HTRF pIC50” value was 6.00.
Still for that read-out and setting: for `COC(=O)C(C)CCn1c(=O)n(C)c2ccc(Nc3nc(C)ncc3Cl)cc21` (centres unmarked) [Example 3c, Methyl 4-[6-[(5-chloro-2-methyl-pyrimidin-4-yl)amino]-3-methyl-2-oxo-benzimidazol-1-yl]-2-methyl-butanoate] the value was 5.37.
The same measure, in the same setting: the value for `C[C@@H]1CCN(c2ncc(Cl)c(Nc3ccc4c(c3)n(CCC(C)(C)O)c(=O)n4C)n2)C[C@H](C)C1` [Example 35y, 5-((5-chloro-2-((3R,5S)-3,5-dimethylazepan-1-yl)pyrimidin-4-yl)amino)-3-(3-hydroxy-3-methylbutyl)-1-methyl-1,3-dihydro-2H-benzo[d]imidazol-2-one] was 5.70; that for `Cn1c(=O)n(CCC(C)(C)O)c2cc(Nc3nc(N4CCCC4=O)ncc3Cl)ccc21` [Example 30b, 5-((5-chloro-2-(2-oxopyrrolidin-1-yl)pyrimidin-4-yl)amino)-3-(3-hydroxy-3-methylbutyl)-1-methyl-1,3-dihydro-2H-benzo[d]imidazol-2-one] was 5.99; that for `C[C@@H]1C[C@H](C)CN(C(=O)c2cc(Nc3ccc4c(c3)n(CCC(C)(C)O)c(=O)n4C)c(Cl)cn2)C1` [Example 36e, 5-((5-chloro-2-((3R,5S)-3,5-dimethylpiperidine-1-carbonyl)pyridin-4-yl)amino)-3-(3-hydroxy-3-methylbutyl)-1-methyl-1,3-dihydro-2H-benzo[d]imidazol-2-one] was 6.22.
For the compound `C[C@@H]1C[C@H](C)CN(c2cc(Nc3ccc4c(c3)n(CCC(C)(C)O)c(=O)n4C)c(Cl)cn2)C1` [Example 36d, 5-((5-chloro-2-((3S,5R)-3,5-dimethylpiperidin-1-yl)pyridin-4-yl)amino)-3-(3-hydroxy-3-methylbutyl)-1-methyl-1,3-dihydro-2H-benzo[d]imidazol-2-one], the “HTRF pIC50” value was determined as 5.48.
`CN1CC(C)(CCn2c(=O)n(C)c3ccc(Nc4ccnc(Cl)c4C#N)cc32)OC1=O` (centres unmarked) [Example 33, 2-chloro-4-((3-(2-(3,5-dimethyl-2-oxooxazolidin-5-yl)ethyl)-1-methyl-2-oxo-2,3-dihydro-1H-benzo[d]imidazol-5-yl)amino)nicotinonitrile]: the “HTRF pIC50” value turned out to be 5.43.
Regarding `COC(Cn1c(=O)n(CCC(C)(C)O)c2cc(Nc3nc(N4C[C@@H](C)C(F)(F)[C@@H](C)C4)ncc3Cl)ccc21)OC` [Example 41a, 5-((5-chloro-2-((3S,5R)-4,4-difluoro-3,5-dimethylpiperidin-1-yl)pyrimidin-4-yl)amino)-1-(2,2-dimethoxyethyl)-3-(3-hydroxy-3-methylbutyl)-1,3-dihydro-2H-benzo[d]imidazol-2-one], the “HTRF pIC50” value came to 6.06.
As for `Cn1c(=O)n(CCC(C)(C)O)c2cc(Nc3ccnc(Cl)c3C#N)c(F)cc21` [Example 22f], the “HTRF pIC50” value is listed as 5.75.
With `C[C@@H](O)CCn1c(=O)n(C)c2ccc(Nc3ccnc(Cl)c3Cl)cc21` [Example 1q, 5-[(2,3-dichloro-4-pyridyl)amino]-3-[(3R)-3-hydroxybutyl]-1-methyl-benzimidazol-2-one], the “HTRF pIC50” value is 5.45.
Still for that read-out and setting: for `Cn1c(=O)n(CCC(C)(C)O)c2cc(Nc3nc(N4CCC(N5CCOCC5)CC4)ncc3Cl)ccc21` [Example 42h, 5-((5-chloro-2-(4-morpholinopiperidin-1-yl)pyrimidin-4-yl)amino)-3-(3-hydroxy-3-methylbutyl)-1-methyl-1,3-dihydro-2H-benzo[d]imidazol-2-one] the value was 6.88; for `CC1OCCC1Cn1c(=O)n(C)c2ccc(Nc3ccnc(Cl)c3C#N)cc21` (centres unmarked) [Example 19b], 5.55; for `C[C@@H]1CN(c2ncc(Cl)c(Nc3ccc4c(c3)n(CCC(C)(C)O)c(=O)n4CCN(C)C)n2)C[C@H](C)C1(F)F` [Example 37a, 5-((5-chloro-2-((3S,5R)-4,4-difluoro-3,5-dimethylpiperidin-1-yl)pyrimidin-4-yl)amino)-1-(2-(dimethylamino)ethyl)-3-(3-hydroxy-3-methylbutyl)-1,3-dihydro-2H-benzo[d]imidazol-2-one], 6.53.
The same measure, in the same setting: for `CCOC(=O)c1cc(Nc2ccc3c(c2)n(CCC(C)(C)O)c(=O)n3C)n2nccc2n1` [Example 1h, Ethyl 7-[[3-(3-hydroxy-3-methyl-butyl)-1-methyl-2-oxo-benzimidazol-5-yl]amino]pyrazolo[1,5-a]pyrimidine-5-carboxylate] the value was 5.94; for `C[C@@H]1C[C@H](C)CN(c2ncc(Cl)c(Nc3cc4c(cc3F)n(C)c(=O)n4CCC(C)(C)O)n2)C1.O=CO` [Example 20q], 5.87; for `CCNC(C)CCn1c(=O)n(C)c2ccc(Nc3ccnc(Cl)c3C#N)cc21.Cl` (centres unmarked) [Example 26a, 2-chloro-4-((3-(3-(ethylamino)butyl)-1-methyl-2-oxo-2,3-dihydro-1H-benzo[d]imidazol-5-yl)amino)nicotinonitrile hydrochloride], 5.41.
Still for that read-out and setting: for `Cn1c(=O)n(C[C@@H]2CCCN2CCF)c2cc(Nc3ccnc(Cl)c3C#N)ccc21` [Example 25f, (S)-2-chloro-4-((3-((1-(2-fluoroethyl)pyrrolidin-2-yl)methyl)-1-methyl-2-oxo-2,3-dihydro-1H-benzo[d]imidazol-5-yl)amino)nicotinonitrile: formic acid (1:1)] the value was 5.73; for `Cn1c(=O)n(CCC(C)(C)O)c2cc(Nc3nc(N4CC(C(F)(F)F)OC(C)(C)C4)ncc3Cl)ccc21` (centres unmarked) [Example 20k], 6.11; for `COC(=O)CCCn1c(=O)n(C)c2ccc(Nc3ccnc(Cl)c3C#N)cc21` [Example 10d], 5.29.
For `Cn1c(=O)n(CCC(C)(C)O)c2cc(Nc3nc(-n4cccn4)ncc3Cl)ccc21` [Example 15m], the “HTRF pIC50” value is 6.08.
Same read-out and setting: for `CCNC(=O)c1cc(Nc2ccc3c(c2)n(CCC(C)(C)O)c(=O)n3C)c(Cl)cn1` [Example 14, 5-Chloro-N-ethyl-4-[[3-(3-hydroxy-3-methyl-butyl)-1-methyl-2-oxo-benzimidazol-5-yl]amino]pyridine-2-carboxamide] the value was 6.29.

The same experiment, now with this note: initially generated data; 10 nM Trx-6×His-BCL6, 300 nM BCOR-AF633 peptide, 1 nM anti-6×His-Terbium cryptate.
As to `COC(=O)[C@@H](N)CCn1c(=O)n(C)c2ccc(Nc3ccnc(Cl)c3C#N)cc21` [Example 6, Methyl (2S)-2-amino-4-[6-[(2-chloro-3-cyano-4-pyridyl)amino]-3-methyl-2-oxo-benzimidazol-1-yl]butanoate], the “HTRF pIC50” value is reported as 5.97.
For `COC(=O)C(C)CCn1c(=O)n(C)c2ccc(Nc3nc(C)ncc3Cl)cc21` (centres unmarked) [Example 3c, Methyl 4-[6-[(5-chloro-2-methyl-pyrimidin-4-yl)amino]-3-methyl-2-oxo-benzimidazol-1-yl]-2-methyl-butanoate], the “HTRF pIC50” value is listed as 5.37.
Same read-out and setting: for `CN(C)CCNC(=O)c1cc(Nc2ccc3c(c2)n(C)c(=O)n3C)c(C#N)c(Cl)n1` [Example 7d, 6-Chloro-5-cyano-N-[2-(dimethylamino)ethyl]-4-[(1,3-dimethyl-2-oxo-benzimidazol-5-yl)amino]pyridine-2-carboxamide:formic acid (1:1)] the value was 5.50; for `C[C@@H](O)CCn1c(=O)n(C)c2ccc(Nc3ccnc(Cl)c3Cl)cc21` [Example 1q, 5-[(2,3-dichloro-4-pyridyl)amino]-3-[(3R)-3-hydroxybutyl]-1-methyl-benzimidazol-2-one], 5.49.
The same measure, in the same setting: the value for `CCOC(=O)c1cc(Nc2ccc3c(c2)n(CCC(C)(C)O)c(=O)n3C)n2nccc2n1` [Example 1h, Ethyl 7-[[3-(3-hydroxy-3-methyl-butyl)-1-methyl-2-oxo-benzimidazol-5-yl]amino]pyrazolo[1,5-a]pyrimidine-5-carboxylate] was 5.79; that for `COC(=O)CCCn1c(=O)n(C)c2ccc(Nc3ccnc(Cl)c3C#N)cc21` [Example 10d] was 5.55; that for `CCNC(=O)c1cc(Nc2ccc3c(c2)n(CCC(C)(C)O)c(=O)n3C)c(Cl)cn1` [Example 14, 5-Chloro-N-ethyl-4-[[3-(3-hydroxy-3-methyl-butyl)-1-methyl-2-oxo-benzimidazol-5-yl]amino]pyridine-2-carboxamide] was 6.05.

Still in this experiment, the particulars now being: result in words.
In the case of `Cn1c(=O)n(C[C@@H]2CCCN2CC2CC2)c2cc(Nc3ccnc(Cl)c3C#N)ccc21` [(S)-2-chloro-4-((3-((1-(cyclopropylmethyl)pyrrolidin-2-yl)methyl)-1-methyl-2-oxo-2,3-dihydro-1H-benzo[d]imidazol-5-yl)amino)nicotinonitrile], the “activity in the HTRF assay” value is “did not exhibit the desired activity”.
Regarding `Cn1c(=O)n(CCC(C)(C)O)c2cc(Nc3cc(Cl)ncc3C(F)F)ccc21` [5-((2-chloro-5-(difluoromethyl)pyridin-4-yl)amino)-3-(3-hydroxy-3-methylbutyl)-1-methyl-1,3-dihydro-2H-benzo[d]imidazol-2-one], the “activity in the HTRF assay” value is “did not exhibit the desired activity”.
Same read-out and setting: the value for `Cn1c(=O)n(CC2CC(C)(C)C2)c2cc(Nc3ccnc(Cl)c3C#N)ccc21` [2-chloro-4-((3-((3,3-dimethylcyclobutyl)methyl)-1-methyl-2-oxo-2,3-dihydro-1H-benzo[d]imidazol-5-yl)amino)nicotinonitrile] was “did not exhibit the desired activity”; that for `Cn1c(=O)n(CCN2CCOCC2)c2cc(Nc3ccnc(Cl)c3C#N)ccc21` [2-chloro-4-((1-methyl-3-(2-morpholinoethyl)-2-oxo-2,3-dihydro-1H-benzo[d]imidazol-5-yl)amino)nicotinonitrile] was “did not exhibit the desired activity”; that for `Cn1c(=O)n(CCC(C)(C)O)c2cc(Nc3ccnc(Cl)c3C(F)(F)F)ccc21` [5-((2-chloro-3-(trifluoromethyl)pyridin-4-yl)amino)-3-(3-hydroxy-3-methylbutyl)-1-methyl-1,3-dihydro-2H-benzo[d]imidazol-2-one] was “did not exhibit the desired activity”.
In the case of `Cn1c(=O)n(C)c2cc(Nc3ncncc3C#N)ccc21` [4-((1,3-dimethyl-2-oxo-2,3-dihydro-1H-benzo[d]imidazol-5-yl)amino)pyrimidine-5-carbonitrile], the “activity in the HTRF assay” value is recorded as “did not exhibit the desired activity”.
